{
  "source": "patent US11635434B2",
  "about": "“Betaretrovirus epitopes and related methods of use” (priority 2018, dated 2023)",
  "test_system": "intrahepatic lymphocytes (IHL)",
  "assay": "IFN-γ ELISPOT of intrahepatic lymphocytes stimulated with individual HBRV peptides",
  "format": "cell-based, human",
  "description": "We isolated intrahepatic lymphocytes (IHL) to increase the likelihood of finding HBRV reactive lymphocytes (FIG. 3). IHL were extracted from 5 PBC subjects and 4 LT controls, as described^58 (FIG. 4B). ELISPOT was employed to detect IFN-γ spot forming colonies (SFC) using 100,000 IHL per reaction. Individual peptides from HBRV GAG and Env (immunosuppressive domains (ISD) peptides removed) were used to perform 140 analyses per sample with […] as positive and no stimulus as negative control. We found 15 GAG and 21 Env peptides that produced SFC above background levels (FIG. 6A).\nCellular immune responses have been found using pooled peptides of the HBRV Gag (n=58) and Env (n=85) proteins. […] In order to characterize immunodominant HBRV epitopes, we screened intra-hepatic lymphocytes (IHL) from PBC subjects and control subjects for evidence of IFNg production. Methods: IHL were isolated from liver transplant recipients with PBC (n=5) and other hepatic disorders (n=4). IHL were individually stimulated with 15-mer peptides from HBRV Gag or Env proteins (n=144) or the characterized CD8+ reactive epitope to pyruvate dehydrogenase-E2 (PDH-E2). ELISpot was used to measure spot forming colonies (SFC) producing IFN-g.",
  "data": [
    {"sequence": "TIYLGGSPDFHGFRNMSG [Env 17]", "values": [
      {"measurement": "number of PBC subjects whose IHL were reactive (IFN-γ producing)", "setting": "5 PBC subjects", "result": 1},
      {"measurement": "SFC level in the reactive PBC subject's IHL", "setting": "FIG. 6A", "result": "< 50", "unit": "SFC"}
    ]}
  ]
}
